# Measured values taken from US20070027143A1, “Novel substituted 2,3-benzodiazepine derivatives” (priority 2003, published 2007).
# Like-named read-outs stand apart in the source and are kept apart here. Marks after values point to notes of the source that are not given here.
# Columns and labels:
# Format in all cases: in vivo
# CD1 mice [1] = assay: Anticonvulsant activity, maximal electroshock seizure (MES) test; details: Mus musculus, po.
# CD1 mice [2] = assay: Anticonvulsant activity, pentetrazole induced seizures; details: Mus musculus; po.; read-out: Pentetrazol ED50
# In short: (§1)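 Read-out: clonic-tonic seizures and lethality after chemical challenge in male CD1 mice, pretreated orally (three doses, ten animals each) typically 60 min earlier.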
# CD1 mice [3] = assay: Anticonvulsant activity, strychnine induced seizures; details: Mus musculus; po.; read-out: Strychnine ED50
# In short: as §1
# CD1 mice [4] = assay: Anticonvulsant activity, bemegride induced seizures; details: Mus musculus; po.; read-out: Bemegride ED50
# In short: as §1
# CD1 mice [5] = assay: Anticonvulsant activity, bicuculline induced seizures; details: Mus musculus; po.; read-out: Bicuculline ED50
# In short: as §1
# CD1 mice [6] = assay: Anticonvulsant activity, nicotine induced seizures; details: Mus musculus; po.
# In short: as §1
# CD1 mice [7] = assay: Anticonvulsant activity, 3-mercapto-propionic acid induced seizures; details: Mus musculus; po.; read-out: 3-MPA ED50
# In short: as §1
# CD1 mice [8] = assay: Muscle relaxant activity, inclined screen test; details: Mus musculus, ip
# CD1 mice [9] = assay: Muscle relaxant activity, rotarod test; details: Mus musculus, ip
# Lewis rats [10] = assay: Autoimmune encephalomyelitis model, neurological (clinical) symptoms; details: female rats; for Neurological symptoms (change, %): day 24 after immunization; for change in vivo at 0.2 mg/kg / change in vivo at 0.5 mg/kg / change in vivo at 1 mg/kg / change in vivo at 1.875 mg/kg / change in vivo at 3.75 mg/kg: Rattus norvegicus, read-out: Neurological symptoms (change compared to controls, %)
# Lewis rats [11] = assay: Autoimmune encephalomyelitis model, histological symptoms; details: female rats, day 24 after immunization
# Experimental: 5-15 animals were used in each group. Their weights were 160-180 g (Lewis rats, female) and 180-220 g (Lewis rats, male). The activity of the compounds was determined according to the symptom score values, and compared to those of the control group (see Table 6). Histopathological investigations were carried out on the brain stem, the spinal cord, and the sciatic nerve (Gijbels et al., J. Clin. Invest. 94:2177 (1994)) using 5-10 animal/group.
# Compounds of the invention were further investigated in the autoimmune encephalomyelitis model in rats as outlined in this description before, with the variance that 10 animals were used in each group, of weights 140-160 g (Lewis rats, female).
# CD1 mice [12] = assay: Anti-tremor effect, oxotremorine induced tremor; details: Mus musculus; po., Litchfield-Wilcoxon, limits in brackets; read-out: ED50, tremor induced by Oxotremorin 1 mg/kg ip.
# CD1 mice [13] = assay: Anti-tremor effect, GYKI 20039 induced tremor; details: Mus musculus; po., Litchfield-Wilcoxon, limits in brackets; read-out: ED50, tremor induced by GYKI 20039 10 mg/kg ip.
# BN rats = assay: Airway eosinophilia of ovalbumin sensitized, antigen challenged BN rats (BALF eosinophil count); details: 3.0 mg/kg po, 2 hours pre-challenge, mean ± SE
# From the text: Bronchial hyperresponsiveness (BHR) and airway eosinophilia (AEP) are characteristic features of bronchial asthma. BHR is typified by an exaggerated response to a wide variety of stimuli that can induce an increased resistance to airflow in the airways. AEP is a result of prolonged eosinophil infiltration, mast cell, and T cell activation in the airways. In actively (e.g., ovalbumin) immunized rats (e.g., Brown Norway [BN] strain), repeated sensitization followed by antigenic challenge results in lung eosinophilia and bronchial hyperresponsiveness to different spasmogens (e.g., acetylcholine). This is the most frequently employed model for studying potential anti-asthmatic effects of new chemical entities.
# BN rats were actively immunized with allergen (ovalbumin). On day one, rats were sensitized with the subcutaneous administration of ovalbumin suspended in Al(OH)3 (2.5 μg ovalbumin +20 mg Al(OH)3 in 0.5 ml saline). Booster injections (same dose and same route) were given at day 14 and 21. Simultaneously at each occasion 0.25 ml of Bordatella pentussis vaccine was injected intraperitoneally. On day 28, animals were challenged by inhalation of the antigen (vaporized 1% OVA solution for 1 hour). Test compounds were administered orally 2 hours pre-challenge.
# 48 hours following challenge, they were sacrificed by an overdose of urethane (4-5 ml of 15% urethane given i.p.), bronchoalveolar lavage fluid (BALF) was obtained, and tracheae dissected from the animals. Eosinophil cell count (cells/ml BALF) was determined manually using a selective stain for eosinophils and counting the cells in a Buerker chamber. BHR was determined using tracheal rings suspended in an organ bath. After an equilibration period of 30 minutes, cumulative concentration response curves to acetylcholine were determined. Maximal response of control (unchallenged, non-treated) tracheal rings is obtained at 10^−3 M acetylcholine. The height of this response is defined as 100%. All other contractions are expressed as a percentage and related to the control response.
structure (smiles),measurement,setting,value
"Cc1nnc(N2N=C(c3ccc(N)c(C)c3)c3cc4c(cc3C[C@H]2C)OCO4)s1 [Example 119, (R)-5-(4-amino-3-methylphenyl)-8-methyl-7-(5-methyl-1,3,4-thiadiazol-2-yl)-8,9-dihydro-7H-1,3-dioxolo-[4,5-h][2,3]benzodiazepine]",ED50,"CD1 mice [1]; 0.5 h, 30′, read-out: MES 30′ ED50",2.15 mg/kg
same,ED50,"CD1 mice [1]; 1 h, 60 min before induction, read-out: MES (MES 60′) ED50",2.87 mg/kg
same,ED50,CD1 mice [2],5 mg/kg
same,ED50,CD1 mice [3],8.4 mg/kg
same,ED50,CD1 mice [4],5.7 mg/kg
same,ED50,CD1 mice [5],2.5 mg/kg
same,ED50,CD1 mice [6],6.3 mg/kg
same,ED50,CD1 mice [7],3.37 mg/kg
same,ED50,CD1 mice [8],2.49 mg/kg
same,ED50,CD1 mice [9],0.51 mg/kg
same,"Neurological symptoms (change, %)",Lewis rats [10]; 0.2 mg/kg i.p.,−37%
same,"Neurological symptoms (change, %)",Lewis rats [10]; 0.5 mg/kg i.p.,−35%
same,"Neurological symptoms (change, %)",Lewis rats [10]; 0.5 mg/kg p.o.,−1%
same,"Neurological symptoms (change, %)",Lewis rats [10]; 1.0 mg/kg i.p.,−72** %
same,"Neurological symptoms (change, %)",Lewis rats [10]; 1.0 mg/kg p.o.,−23%
same,"Neurological symptoms (change, %)",Lewis rats [10]; 1.875 mg/kg ip.,−71** %
same,"Neurological symptoms (change, %)",Lewis rats [10]; 1.875 mg/kg p.o.,−50** %
same,"Neurological symptoms (change, %)",Lewis rats [10]; 3.75 mg/kg ip.,−90** %
same,"Neurological symptoms (change, %)",Lewis rats [10]; 3.75 mg/kg p.o.,−61*** %
same,change in vivo at 0.2 mg/kg,"Lewis rats [10]; ip, 0.2 mg/kg i.p., 0-8 day",-36%
same,change in vivo at 0.2 mg/kg,"Lewis rats [10]; ip, 0.2 mg/kg i.p., 0-14 day",-37%
same,change in vivo at 0.5 mg/kg,"Lewis rats [10]; ip, 0.5 mg/kg i.p., 0-8 day",-33%
same,change in vivo at 0.5 mg/kg,"Lewis rats [10]; ip, 0.5 mg/kg i.p., 0-14 day",-35%
same,change in vivo at 1 mg/kg,"Lewis rats [10]; ip, 1.0 mg/kg i.p., 0-8 day",-75%
same,change in vivo at 1 mg/kg,"Lewis rats [10]; ip, 1.0 mg/kg i.p., 0-14 day",-72%
same,change in vivo at 1.875 mg/kg,"Lewis rats [10]; ip, 1.875 mg/kg ip., 0-8 day",-72%
same,change in vivo at 1.875 mg/kg,"Lewis rats [10]; ip, 1.875 mg/kg ip., 0-14 day",-71%
same,change in vivo at 3.75 mg/kg,"Lewis rats [10]; ip, 3.75 mg/kg ip., 0-8 day",-97%
same,change in vivo at 3.75 mg/kg,"Lewis rats [10]; ip, 3.75 mg/kg ip., 0-14 day",-90%
same,change in vivo at 0.5 mg/kg,"Lewis rats [10]; po, 0.5 mg/kg p.o., 0-8 day",2%
same,change in vivo at 0.5 mg/kg,"Lewis rats [10]; po, 0.5 mg/kg p.o., 0-14 day",-1%
same,change in vivo at 1 mg/kg,"Lewis rats [10]; po, 1.0 mg/kg p.o., 0-8 day",-20%
same,change in vivo at 1.875 mg/kg,"Lewis rats [10]; po, 1.875 mg/kg p.o., 0-8 day",-50%
same,change in vivo at 1.875 mg/kg,"Lewis rats [10]; po, 1.875 mg/kg p.o., 0-14 day",-50%
same,Histopathological symptoms (change %),Lewis rats [11]; 0.2 mg/kg i.p.,+2%
same,Histopathological symptoms (change %),Lewis rats [11]; 0.5 mg/kg i.p.,−13%
same,Histopathological symptoms (change %),Lewis rats [11]; 0.5 mg/kg p.o.,−16%
same,Histopathological symptoms (change %),Lewis rats [11]; 1.0 mg/kg i.p.,−3%
same,Histopathological symptoms (change %),Lewis rats [11]; 1.0 mg/kg p.o.,−21%
same,"Histological (histopathological) symptoms (change, %)",Lewis rats [11]; 1.875 mg/kg ip.,−8%
same,Histopathological symptoms (change %),Lewis rats [11]; 1.875 mg/kg p.o.,−42%
same,"Histological (histopathological) symptoms (change, %)",Lewis rats [11]; 3.75 mg/kg ip.,+3%
same,Histopathological symptoms (change %),Lewis rats [11]; 3.75 mg/kg p.o.,−32%
same,ED50,CD1 mice [12],1.38 mg/kg
same,ED50,CD1 mice [13],2.21 mg/kg
same,BALF eosinophil number,BN rats,1.16 ± 0.24 ×10^6/ml
